Patent publication US20230107216A1, “PANTETHEINE DERIVATIVES AND USES THEREOF” (Comet Therapeutics, Inc., priority 2018, published 2023)

Key:
[1] = system: Venular Endothelial cells (HUVEC) (3C system); assay: BioMAP 3C system (IL-1β, TNFα, IFNγ); type: cell-based, human; conditions: 10 uM; procedure of Example 825
Description: (§1) The BioMAP platform (BioMAP® Diversity PLUS® Panel from Eurofins) is an in vitro phenotypic profiling technology that screened the compounds of the present disclosure (hereafter indicated as test agents) in human primary cell-based systems modelling complex tissue and disease states. The BioMAP assays were performed using the Eurofin's BioMAP Technology Platform as (see references 1 to 13 in the example 824 section) to model different diseases on primary cell-based model systems. These systems consisted of either single primary cell types or co-culture cells. Adherent cell types were cultured or co-cultured in 96 or 384-well plates until confluence followed by the addition of compounds prepared in DMSO at a final concentration of ≤0.1%. In each cell-based system, primary cells from heathy donors (2-6 donors) were pooled and treated with compounds at 1 and 10 μM dose 1h prior to stimulation and remain in culture as indicated in Example 825, Example 826, Example 827, Example 828, Example 829, Example 830, Example 831, Example 832, Example 833, Example 834, Example 835, Example 836 and Example 837. For on the BioMAP® Diversity PLUS® Panel, please see the following references, which are incorporate herein.
Following the general procedure as described in Example 824, Venular Endothelial cells (HUVEC) (3C system) were treated with IL-1β, TNFα, IFNγ for 24h to model Th1 driven cardiovascular and chronic inflammation diseases in the presence or absence of the compounds. Biomarker read out were; Tissue Factor, ICAM-1, E-selectin, uPAR (CD87), IL-8, MIG, HLA-DR, proliferation and SRB (Sulfo-rhodamine i.e. staining for protein content).

[2] = system: Peripheral blood mononuclear cells co-cultured with venular endothelial cells (Sag system); assay: BioMAP Sag system (T-cell ligands); type: cell-based, human; conditions: 10 uM; procedure of Example 828
Description: as §1
Following the general procedure as described in Example 824, Peripheral blood mononuclear cells were co-cultured with venular endothelial cells and treated with soluble antigen (T-cell ligands) (Sag system) in the presence or absence of compounds to model autoimmune and chronic inflammation. Biomarkers read out were; MCP-1, CD38, CD40, E-selectin, CD69, IL-8, MIG, PBMC cytotoxicity, Proliferation and SRB.

[3] = system: oligodendrocyte precursor cells (OPC) in mixed brain cultures; assay: Oligodendrocyte precursor cells (OPC) proliferation, O4+ cell count; type: cell-based, mouse; conditions: 10 uM
Description: The effect of compounds of the present disclosure was determined on oligodendrocyte precursor cells proliferation (OPC).
Cell culture. Brains of wild type mice (whole brain from 1 or 2 mouse pups) less than postnatal day (P) 2 were isolated and cultured. Briefly, following removal of the meninges, cells were dissociated with 0.25% EDTA/CMF-DMEM and 1% Trypsin (1:1), plated at a density of 75,000 cells/on 0.1 mg/ml poly-L-lysine coated borosilicate glass coverslips in 24-well plates, grown in OPC differentiation media (Oligo media) consisting of DMEM/F12 (Invitrogen 21331-020) supplemented with 1% FBS, 1% N2 Neural Supplement (Invitrogen 17502-048) and PDGF receptor alpha growth factor (Invitrogen 17502-048). Cells were fed every other day and allowed to grow for 7 days in vitro (DIV).
OPCs treatment with compounds of the present disclosure. Cells were treated with compounds of the present disclosure (50-10 μM) or vehicle (0.1% DMSO) starting at 7 DIV. Media was replaced daily with freshly made working solutions of compounds or vehicle for either 48 h (9 DIV total) or 96 h (11 DIV). The 48 h group consisted of 1 coverslip per condition. The 96 h group was treated in duplicate.
Fresh aliquots of compounds of the present disclosure were made up on the day of treatment, briefly, a 50 mM stock was thawed and used to make up fresh 50 μM working solution in Oligo Media. The fresh 50 μM working solution was diluted further in Oligo Media to make 10 μM working solution. Vehicle controls was made up in fresh Oligo Media using the appropriate amount of vehicle (DMSO). Coverslips were stored in clean 24-well plates at 4° C. until fixed-staining. Cells were imaged using Leica DM5500 fluorescent microscope with LAS-X software.
Exposure settings were maintained at the same rate across compounds of the same time-point. Cells were imaged at 20× and 40× magnifications. At least 5 images were taken per condition. Most conditions had at least 5 images that were counted. 20× images were utilized for counting DAPI (cell nuclei) and O4+ cells.
Total DAPI per image for all images was counted using ImageJ as here indicated. • Image was converted to 8 bit • Blue Channel (DAPI) was automatically thresholded by default ImageJ settings • Image noise was reduced by ImageJ>Process>Noise>Despeckle • ImageJ>Process>Binary>Watershed was used to automatically separate merged cell nuclei • ImageJ>Analyze>Analyze Particles was used to obtain final count of DAPI per image • Total number of DAPI-positive cells
Total number of O4+ cells per 20× image was manually counted using Adobe Photoshop: • All cell bodies of OPCs with underlying DAPI stain were counted as an O4+ cell • Total number of O4+ cells were recorded in Excel Spreadsheet O4+ cells in mixed brain cultures of wild type mice <P2 treated with compounds of the present disclosure or vehicle were quantified per condition (time point and concentration). The following formula was used to normalize the total cell counts within a compound as well as across compounds treated for the same duration (48h vs. 96h):
(number of O4+cell counts in Compound X/Average DAPI count for Compound X)*Total Average DAPI count across compounds of same Time Point
Values were plotted as Scatter Interval plots in Origin. Each data point represents a single image from which O4+ cell values were obtained. Data are presented as mean±S.E.
Images are at 20× magnification and represent 1-2 coverslips per group. Scale bar, 50 μm.

Structure (SMILES) | % increase in Proliferation (HUVEC) [1] | % Increase OPC proliferation [3] | other results
COC(=O)CCC(=O)SCCNC(=O)CCNC(=O)[C@H](OC(=O)CNC(C)=O)C(C)(C)CO [Compound 1298, methyl 4-[(2-[3-[(2R)-2-[(2-acetamidoacetyl)oxy]-4-hydroxy-3,3-dimethylbutanamido]propanamido]ethyl)sulfanyl]-4-oxobutanoate] |  |  | % decrease in IL-8 [1]: ≥10%
C[C@@H](O)CC(=O)CC(=O)SCCNC(=O)CCNC(=O)[C@H](O)C(C)(C)CO [Compound 42, (2R)-2,4-dihydroxy-N-[2-[(2-[[(5R)-5-hydroxy-3-oxohexanoyl]sulfanyl]ethyl)carbamoyl]ethyl]-3,3-dimethylbutanamide] |  |  | % increase in Proliferation [2]: ≥10%
COC(=O)CCC(=O)SCCNC(=O)CCNC(=O)[C@H](OC(=O)CN)C(C)(C)CO [Compound 1294, methyl 4-[(2-[3-[(2R)-2-[(2-aminoacetyl)oxy]-4-hydroxy-3,3-dimethylbutanamido]propanamido]ethyl)sulfanyl]-4-oxobutanoate] | ≥20% |  | % decrease in IL-8 [1]: ≥10%
CC(C)(CO)[C@@H](O)C(=O)NCCC(=O)NCCSC(=O)CCC(=O)O [Compound 1, (R)-4-((2-(3-(2,4-dihydroxy-3,3-dimethylbutanamido)propanamido)ethyl)thio)-4-oxobutanoic acid] |  | ≥25% | 
CC(=O)SCCNC(=O)CCNC(=O)[C@H](O)C(C)(C)COC(=O)[C@@H](N)Cc1ccc(O)c(O)c1 [Compound 498, (3R)-3-[(2-[[2-(acetylsulfanyl)ethyl]carbamoyl]ethyl)carbamoyl]-3-hydroxy-2,2-dimethylpropyl (2S)-2-amino-3-(3,4-dihydroxyphenyl)propanoate] |  | ≥25% | % decrease in Proliferation [2]: ≥10%
CC(C)(CO)[C@@H](O)C(=O)NCCC(=O)NCCSC(=O)[C@@H](N)Cc1ccc(O)c(O)c1 [Compound 371, (2R)—N-[2-[(2-[[(2S)-2-amino-3-(3,4-dihydroxyphenyl)propanoyl]sulfanyl]ethyl)carbamoyl]ethyl]-2,4-dihydroxy-3,3-dimethylbutanamide] | ≥10% |  | % decrease in Proliferation [2]: ≥10%; % increase in PBMC cytotoxicity [2]: ≥10%
CC(=O)OCC(C)(C)[C@@H](OC(C)=O)C(=O)NCCC(=O)NCCSC(C)=O [Compound 1264, (1R)-3-(acetyloxy)-1-[(2-[[2-(acetylsulfanyl)ethyl]carbamoyl]ethyl)carbamoyl]-2,2-dimethylpropyl acetate] | ≥10% |  | 
COC(=O)CC(C(C)=O)C(=O)SCCNC(=O)CCNC(=O)[C@H](O)C(C)(C)CO (stereo partly shown) [Compound 410] |  | ≥25% | 
C[C@@H](O)CC(=O)SCCNC(=O)CCNC(=O)[C@H](O)C(C)(C)CO [Compound 38, S-2-{3-[(R)-2,4-dihydroxy-3,3-dimethylbutyrylamino]propionylamino} ethyl (R)-3-hydroxybutanethioate] |  | ≥25% | 
CCCCCCC(=O)SCCNC(=O)CCNC(=O)[C@H](O)C(C)(C)CO [Compound 372, (2R)—N-(2-[[2-(heptanoylsulfanyl)ethyl]carbamoyl]ethyl)-2,4-dihydroxy-3,3-dimethylbutanamide] | ≥20% |  | % increase in Proliferation [2]: ≥10%
CC(C)(CO)[C@@H](O)C(=O)NCCC(=O)NCCSC(=O)CCCN [Compound 370, (2R)—N-[2-([2-[(4-aminobutanoyl)sulfanyl]ethyl]carbamoyl)ethyl]-2,4-dihydroxy-3,3-dimethylbutanamide] |  | ≥10% | 
